GI50 and TGI data for 16 compounds are collected here from PubChem BioAssay (NCI).

Test systems include MDA-MB-231 breast; MCF7 breast; BT-549 breast; M19-MEL melanoma; DMS 273 small cell lung; KM20L2 colon; DU-145 prostate; T-47D breast; HS 578T breast; LXFL 529 NSCLC.
Common to all, as to assay: NCI tumour cell line growth inhibition, 48 h

Each structure is given as a SMILES string.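 1) Cells in 96-well plates. 2) Compound, 48 h, 5 concentrations. 3) Linear interpolation between surrounding doses. 4) Unreached endpoint = highest concentration. GI50 marks 50% less growth. At the TGI there is no net growth.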 A value given as a limit tells only on which side of the number the result lay.

As for `CCOP(=O)(CCP(=O)(OCC)OCC)OCC.C[CH2][Sn]([Cl])([Cl])[CH2]C`, the GI50 with MDA-MB-231 breast is 25 µM; in the experiment on MCF7 breast, 21.6 µM; with BT-549 breast, 17.8 µM; with M19-MEL melanoma, 24.8 µM; in the experiment with DMS 273 small cell lung, over 75.1 µM; in the experiment with KM20L2 colon, over 68.2 µM. Moreover, the GI50 in the experiment on DU-145 prostate is over 100 µM; in the experiment on T-47D breast it was 18.5 µM; with HS 578T breast it was over 100 µM; with LXFL 529 NSCLC, 10.7 µM. The TGI with MDA-MB-231 breast is 92.2 µM; in the experiment on MCF7 breast, 44.4 µM; with BT-549 breast, 33.8 µM; with M19-MEL melanoma, over 60.4 µM; in the experiment on DMS 273 small cell lung, over 100 µM; in the experiment with KM20L2 colon, over 100 µM. Moreover, the TGI was over 100 µM in the experiment with DU-145 prostate, 40.9 µM in the experiment on T-47D breast, over 100 µM in the experiment on HS 578T breast and 22.8 µM in the experiment on LXFL 529 NSCLC.

`C/C(=N/O)C1CC=C(S(=O)(=O)c2ccccc2)C1` (stereo not given): the TGI in the experiment on M19-MEL melanoma, in the experiment with DMS 273 small cell lung, in the experiment on KM20L2 colon and in the experiment with LXFL 529 NSCLC was over 100 µM in each case.

For the compound `Nc1nnc2nc(CC(=O)/C=C/c3ccccc3)c(=O)[nH]n12`, the TGI in the experiment with M19-MEL melanoma, in the experiment with DMS 273 small cell lung, in the experiment with KM20L2 colon and with LXFL 529 NSCLC was over 100 µM in each case.

On to `CC(=O)CC(=O)CCCC(=O)Nc1ccc(Cl)cc1C`, for which the TGI with M19-MEL melanoma, in the experiment with DMS 273 small cell lung, in the experiment on KM20L2 colon and in the experiment on LXFL 529 NSCLC was over 100 µM throughout.

As for `COc1ccc2c(=O)c([Se]c3coc4cc(OC)ccc4c3=O)coc2c1`, the TGI with M19-MEL melanoma, in the experiment with DMS 273 small cell lung, in the experiment on KM20L2 colon and in the experiment with LXFL 529 NSCLC was over 100 µM in each case.

On to `N=C(N)n1ncc(Cl)c(Cl)c1=O`, for which the TGI was 3.77 µM in the experiment on M19-MEL melanoma, 4.78 µM with DMS 273 small cell lung, 19.3 µM in the experiment on KM20L2 colon and 3.31 µM with LXFL 529 NSCLC.

In the case of `CC(=O)OC1C=CC2CCN3C(=O)c4cc5c(cc4[C@H]1C23)OCO5` (stereo not given in full), the TGI in the experiment on M19-MEL melanoma, in the experiment on DMS 273 small cell lung, in the experiment on KM20L2 colon and in the experiment on LXFL 529 NSCLC was over 100 µM in each case.

On to `COc1c(OC(C)=O)cc2c(OC(C)=O)c1CC(C)CC(OC)C(O)C(C)/C=C(\C)C(OC(N)=O)C(OC)/C=C\C=C(/C)C(=O)N2` (stereo not given), for which the TGI in the experiment with M19-MEL melanoma, in the experiment with DMS 273 small cell lung, with KM20L2 colon and with LXFL 529 NSCLC was over 100 µM in each case.

As to `C=C1C(=O)OC2CCCCC3OC3C12` (stereo not given), the TGI turned out to be 35.1 µM in the experiment with M19-MEL melanoma, 23.8 µM in the experiment with DMS 273 small cell lung, 22.8 µM in the experiment with KM20L2 colon and 20.2 µM in the experiment on LXFL 529 NSCLC.

In the case of `OC1CN(OC/C=C/c2ccccc2)CC(O)C1O` (stereo not given), the TGI with M19-MEL melanoma, in the experiment with DMS 273 small cell lung, with KM20L2 colon and in the experiment on LXFL 529 NSCLC was over 100 µM each time.

On to `O=[N+]([O-])c1cccc(C2SCc3nc4ccccc4n32)c1` (stereo not given), for which the TGI in the experiment with M19-MEL melanoma, with DMS 273 small cell lung, in the experiment with KM20L2 colon and in the experiment on LXFL 529 NSCLC was over 100 µM in each case.

In the case of `Cc1c2ccccc2c(C)c2c3c(ccc12)C(=O)C=CC3=O`, the TGI in the experiment with M19-MEL melanoma was 35.8 µM; in the experiment with DMS 273 small cell lung, over 100 µM; in the experiment with KM20L2 colon it was over 100 µM; in the experiment on LXFL 529 NSCLC, 31.5 µM.

Take `C/C(CN1C(=O)c2ccccc2C1=O)=N\NS(=O)(=O)c1ccccc1`: the TGI with M19-MEL melanoma, with DMS 273 small cell lung, with KM20L2 colon and in the experiment on LXFL 529 NSCLC was over 100 µM throughout.

For `CCCCCCCCCCCCCCCCOC(=O)C(C(=O)OCCCCCCCCCCCCCCCC)[N+](C)(C)CCOC(C)=O`, the TGI in the experiment with M19-MEL melanoma was 30.4 µM; with DMS 273 small cell lung, 25 µM; in the experiment on KM20L2 colon it was 50 µM; with LXFL 529 NSCLC, 37.2 µM.

As for `O=C(CC(=O)N1N=C(n2ccc3ccccc32)CC1c1ccccc1)Nc1cccc(Cl)c1` (stereo not given), the TGI in the experiment with M19-MEL melanoma, with DMS 273 small cell lung, in the experiment with KM20L2 colon and with LXFL 529 NSCLC was over 100 µM each time.

In the case of `CC(=O)NNc1nc(C)c(C(=O)NNC(=O)C(=O)Nc2ccc(C)c(C)c2)s1`, the TGI in the experiment with M19-MEL melanoma, with DMS 273 small cell lung, in the experiment on KM20L2 colon and with LXFL 529 NSCLC was over 100 µM in each case.
